PubChem BioAssay AID1963963 (Molecular Pharmacology Branch, DTP, NCI, 2024)
One block for each compound: values may come before it.

Tested on: 958667-338-R-J2-PDC tumor spheroids viability
Experiment: Anticancer human tumor 958667-338-R-J2-PDC patient-derived colon adenocarcinoma cell line growth inhibition [PI3K]
Conditions: spheroids with HUVEC and MSC; for IC50: curve of first compound; for viability, T/C: stronger effect = lower value
How it was run: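 Stroma-containing spheroids: tumor line, pooled-donor HUVEC, hMSC. Treatments: targeted agents with PI3K inhibitors. Dosing: clinically relevant, half-log spacing, 10 microM ceiling without known Cmax. Read-out: cell viability.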

[1] = second compound 0.0316 µM, first compound 0.0316 µM
[2] = second compound 0.0316 µM, first compound 0.1 µM
[3] = second compound 0.0316 µM, first compound 0.316 µM
[4] = second compound 0.0316 µM, first compound 1 µM
[5] = second compound 0.0316 µM, first compound 3.16 µM
[6] = second compound 0.0316 µM, first compound 10 µM
[7] = second compound 0.1 µM, first compound 0.0316 µM
[8] = second compound 0.1 µM, first compound 0.1 µM
[9] = second compound 0.1 µM, first compound 0.316 µM
[10] = second compound 0.1 µM, first compound 1 µM
[11] = second compound 0.1 µM, first compound 3.16 µM
[12] = second compound 0.1 µM, first compound 10 µM
[13] = second compound 0.316 µM, first compound 0.0316 µM
[14] = second compound 0.316 µM, first compound 0.1 µM
[15] = second compound 0.316 µM, first compound 0.316 µM
[16] = second compound 0.316 µM, first compound 1 µM
[17] = second compound 0.316 µM, first compound 3.16 µM
[18] = second compound 0.316 µM, first compound 10 µM
[19] = second compound 1 µM, first compound 0.0316 µM
[20] = second compound 1 µM, first compound 0.1 µM
[21] = second compound 1 µM, first compound 0.316 µM
[22] = second compound 1 µM, first compound 1 µM
[23] = second compound 1 µM, first compound 3.16 µM
[24] = second compound 1 µM, first compound 10 µM
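Note: spheroids exposed to compounds for seven days before readout.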

IC50 (second compound 0.00316 µM): > 10 µM | IC50 (second compound 0.01 µM): > 10 µM | IC50 (second compound 0.0316 µM): > 10 µM | IC50 (second compound 0.1 µM): > 10 µM | IC50 (second compound 0.316 µM): > 10 µM | IC50 (second compound 1 µM): > 10 µM
Structure (SMILES): CNC(=O)c1ccc(N2C(=S)N(c3ccc(C#N)c(C(F)(F)F)c3)C(=O)C2(C)C)cc1F + CC(Nc1ccc2c(c1)OCCn1cc(N3C(=O)OCC3C(F)F)nc1-2)C(N)=O
viability, T/C (second compound 0.00316 µM, first compound 0.0316 µM): 96.3% | viability, T/C (second compound 0.00316 µM, first compound 0.1 µM): 103% | viability, T/C (second compound 0.00316 µM, first compound 0.316 µM): 93.4% | viability, T/C (second compound 0.00316 µM, first compound 1 µM): 84.3% | viability, T/C (second compound 0.00316 µM, first compound 3.16 µM): 97.1% | viability, T/C (second compound 0.00316 µM, first compound 10 µM): 102% | viability, T/C (second compound 0.01 µM, first compound 0.0316 µM): 115% | viability, T/C (second compound 0.01 µM, first compound 0.1 µM): 102% | viability, T/C (second compound 0.01 µM, first compound 0.316 µM): 80.6% | viability, T/C (second compound 0.01 µM, first compound 1 µM): 97.6% | viability, T/C (second compound 0.01 µM, first compound 3.16 µM): 89.9% | viability, T/C (second compound 0.01 µM, first compound 10 µM): 95.7% | viability, T/C [1]: 104% | viability, T/C [2]: 98.1% | viability, T/C [3]: 93.6% | viability, T/C [4]: 107% | viability, T/C [5]: 104% | viability, T/C [6]: 94.6% | viability, T/C [7]: 84.5% | viability, T/C [8]: 57.5% | viability, T/C [9]: 90% | viability, T/C [10]: 79.6% | viability, T/C [11]: 85.1% | viability, T/C [12]: 83.5% | viability, T/C [13]: 75.3% | viability, T/C [14]: 73.5% | viability, T/C [15]: 73.9% | viability, T/C [16]: 72.5% | viability, T/C [17]: 63% | viability, T/C [18]: 68.4% | viability, T/C [19]: 67% | viability, T/C [20]: 64.3% | viability, T/C [21]: 64.2% | viability, T/C [22]: 62% | viability, T/C [23]: 69.4% | viability, T/C [24]: 50.6%

IC50 (second compound 0.0316 µM): > 10 µM | IC50 (second compound 0.1 µM): 4.38 µM | IC50 (second compound 0.316 µM): 1.37 µM | IC50 (second compound 1 µM): 3.2 µM | IC50 (second compound 3.16 µM): 3.6 µM | IC50 (second compound 10 µM): 1.84 µM
Structure (SMILES): Cn1ncc(Cl)c1-c1cc(C(=O)NC(CN)Cc2cccc(F)c2)sc1Cl (centres undefined) + CC(Nc1ncnc2nc[nH]c12)c1cc2cccc(Cl)c2c(=O)n1-c1ccccc1
viability, T/C [1]: 87.7% | viability, T/C [2]: 87.1% | viability, T/C [3]: 100% | viability, T/C [4]: 60.6% | viability, T/C [5]: 60.5% | viability, T/C [6]: 43.4% | viability, T/C [7]: 111% | viability, T/C [8]: 81.1% | viability, T/C [9]: 84.7% | viability, T/C [10]: 64.1% | viability, T/C [11]: 59% | viability, T/C [12]: 37.5% | viability, T/C [13]: 93.7% | viability, T/C [14]: 89.9% | viability, T/C [15]: 82.1% | viability, T/C [16]: 50.7% | viability, T/C [17]: 52.2% | viability, T/C [18]: 37.2% | viability, T/C [19]: 95.6% | viability, T/C [20]: 87.3% | viability, T/C [21]: 97.1% | viability, T/C [22]: 75.9% | viability, T/C [23]: 51.4% | viability, T/C [24]: 39.4% | viability, T/C (second compound 3.16 µM, first compound 0.0316 µM): 88.4% | viability, T/C (second compound 3.16 µM, first compound 0.1 µM): 89.1% | viability, T/C (second compound 3.16 µM, first compound 0.316 µM): 85.8% | viability, T/C (second compound 3.16 µM, first compound 1 µM): 79.7% | viability, T/C (second compound 3.16 µM, first compound 3.16 µM): 52.1% | viability, T/C (second compound 3.16 µM, first compound 10 µM): 32.6% | viability, T/C (second compound 10 µM, first compound 0.0316 µM): 82.3% | viability, T/C (second compound 10 µM, first compound 0.1 µM): 82.3% | viability, T/C (second compound 10 µM, first compound 0.316 µM): 65.9% | viability, T/C (second compound 10 µM, first compound 1 µM): 59.4% | viability, T/C (second compound 10 µM, first compound 3.16 µM): 42.9% | viability, T/C (second compound 10 µM, first compound 10 µM): 28.2%
